“Also recorded” adds a separate entry of the source.
Columns and labels:
MRL/lpr mice = assay: MRL/lpr spontaneous lupus model, Experiment 2; format: in vivo; conditions: for serum anti-dsDNA levels: MRL/lpr mice, Experiment 2, doses per Table 4
Protocol: In this SLE experiment, dosing, groups were as described in Table 4 below. Two dose levels of Compound 23 were compared to HCQ and cyclophosphamide (Cytoxan®). HCQ and cyclophosphamide are currently used in the treatment of cutaneous and systemic lupus, respectively. […] Sera were assayed at a 1:600 dilution in PBS. (Mouse Anti-dsDNA Total Ig Qualitative ELISA kits, Alpha Diagnostic International). Dosing was conducted by either oral (p.o.) or intraperitoneal (i.p.) administration.

human TLR7 = biological target: T1, human TLR7 (Homo sapiens, UniProt Q9NYK1); assay: HEK/TLR7 activation assay (R848 stimulation); format: cell-based; conditions: HEK cells transfected with human TLR7
T1 construct: expressed in transfected cells; host or cells: HEK cell line (HEK293, as in the primary assay)
T1 sequence (Q9NYK1 27-1049): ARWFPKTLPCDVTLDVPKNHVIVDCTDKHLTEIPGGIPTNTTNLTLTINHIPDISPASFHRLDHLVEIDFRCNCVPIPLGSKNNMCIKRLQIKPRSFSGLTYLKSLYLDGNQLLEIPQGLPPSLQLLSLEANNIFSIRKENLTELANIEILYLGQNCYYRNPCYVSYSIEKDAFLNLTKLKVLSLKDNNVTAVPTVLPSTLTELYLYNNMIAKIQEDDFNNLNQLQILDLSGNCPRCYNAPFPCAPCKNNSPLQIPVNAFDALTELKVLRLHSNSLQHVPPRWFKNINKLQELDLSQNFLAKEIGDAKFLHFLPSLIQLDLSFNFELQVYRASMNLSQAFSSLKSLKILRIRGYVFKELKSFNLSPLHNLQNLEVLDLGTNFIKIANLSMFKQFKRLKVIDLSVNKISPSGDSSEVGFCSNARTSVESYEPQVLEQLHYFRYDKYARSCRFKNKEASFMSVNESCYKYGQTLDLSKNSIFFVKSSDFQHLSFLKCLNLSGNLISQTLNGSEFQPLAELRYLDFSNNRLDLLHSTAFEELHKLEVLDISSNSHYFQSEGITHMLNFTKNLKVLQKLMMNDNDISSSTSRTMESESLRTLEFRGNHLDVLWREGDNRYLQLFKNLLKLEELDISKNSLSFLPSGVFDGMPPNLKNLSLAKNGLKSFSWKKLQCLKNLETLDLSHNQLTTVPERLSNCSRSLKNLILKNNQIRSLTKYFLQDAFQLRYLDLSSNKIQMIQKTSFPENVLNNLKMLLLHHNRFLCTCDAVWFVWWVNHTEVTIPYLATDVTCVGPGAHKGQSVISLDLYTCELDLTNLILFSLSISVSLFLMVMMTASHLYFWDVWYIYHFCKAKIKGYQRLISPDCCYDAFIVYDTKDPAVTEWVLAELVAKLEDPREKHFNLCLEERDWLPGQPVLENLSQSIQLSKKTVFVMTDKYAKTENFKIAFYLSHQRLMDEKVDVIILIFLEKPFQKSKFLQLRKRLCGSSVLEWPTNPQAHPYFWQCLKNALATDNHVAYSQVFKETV
Protocol: (1) HEK/TLR7Activation Assay: The same compounds were tested in the same way as the primary assay with the following differences. The plasmid used to transfect the HEK cell line encoded for human TLR7 instead of TLR9, and R848 was used to stimulate the cells instead of Oligo CpG 2006.

human TLR9 = biological target: T2, human TLR9 (Homo sapiens, UniProt Q9NR96); assay: Primary assay: HEK/TLR9 activation (NF-kB luciferase reporter, Oligo CpG 2006 stimulation); format: cell-based; conditions: HEK293 transfected with human TLR9 and NF-kB luciferase; compound 30 min before Oligo CpG 2006; overnight; read-out: HEK/TLR9 IC50
T2 construct: expressed in transfected cells; host or cells: HEK293 (ATCC No. CRP-1573 [sic])
T2 sequence (Q9NR96 26-1032): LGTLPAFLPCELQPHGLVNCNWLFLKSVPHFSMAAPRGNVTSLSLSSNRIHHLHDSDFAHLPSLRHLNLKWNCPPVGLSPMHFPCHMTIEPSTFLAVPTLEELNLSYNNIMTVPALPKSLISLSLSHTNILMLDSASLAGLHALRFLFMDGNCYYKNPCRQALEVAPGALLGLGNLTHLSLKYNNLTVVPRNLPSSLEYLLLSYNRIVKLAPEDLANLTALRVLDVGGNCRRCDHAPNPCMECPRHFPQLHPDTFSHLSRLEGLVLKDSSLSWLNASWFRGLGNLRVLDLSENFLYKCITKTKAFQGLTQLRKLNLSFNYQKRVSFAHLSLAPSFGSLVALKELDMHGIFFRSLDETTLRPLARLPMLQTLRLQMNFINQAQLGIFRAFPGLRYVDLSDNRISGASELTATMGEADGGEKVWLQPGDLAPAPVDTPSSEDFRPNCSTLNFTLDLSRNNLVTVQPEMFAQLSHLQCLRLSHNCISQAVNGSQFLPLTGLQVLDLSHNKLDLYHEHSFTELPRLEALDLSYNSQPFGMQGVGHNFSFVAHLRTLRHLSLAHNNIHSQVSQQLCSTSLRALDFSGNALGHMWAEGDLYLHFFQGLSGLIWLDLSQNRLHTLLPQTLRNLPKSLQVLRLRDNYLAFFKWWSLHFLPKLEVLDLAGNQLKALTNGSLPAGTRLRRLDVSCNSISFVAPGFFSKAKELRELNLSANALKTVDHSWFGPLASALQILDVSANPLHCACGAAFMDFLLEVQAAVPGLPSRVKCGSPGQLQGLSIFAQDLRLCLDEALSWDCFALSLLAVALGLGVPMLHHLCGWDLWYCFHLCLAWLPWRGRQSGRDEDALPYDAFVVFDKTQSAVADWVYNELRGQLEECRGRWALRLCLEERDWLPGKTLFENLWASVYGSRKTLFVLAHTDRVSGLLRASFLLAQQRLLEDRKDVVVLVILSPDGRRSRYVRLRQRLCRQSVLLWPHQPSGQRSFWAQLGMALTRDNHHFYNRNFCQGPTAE
Excerpt: A. Primary Assay. The primary assay involved transfecting human embryonic kidney epithelial (HEK) cells with TLR9. More specifically, HEK293 […] cells (ATCC No. CRP-1573, American Type Culture Collection, Manassas, Va.) were transfected with pcDNA3.1D/V5-His-TOPO® plasmid (Invitrogen, Carlsbad, Calif.) encoding human TLR9 (directly inserted as a Tag polymerase-amplified PCR product) and firefly luciferase under the control of three NF-kB binding sites contained in the E-selectin-1 promoter, which was cloned into a pGL3-Enhancer Vector (Promega Corp, Madison, Wis.). Each compound was added to cells 30 min. before stimulation with Oligo CpG 2006, a synthetic phosphorothioate oligonucleotide (Hartmann et al., J Immunol. 164:1617-24 (2000)), with nucleotide sequence 5′-TCGTCGTTTTGTCGTTTTGTCGTT-3′ (SEQ ID NO:1). The cells were incubated overnight at 37° C. The luciferase substrate Steady-Glo® (Promega) was added to the wells, and luminescence was measured to determine the extent of TLR9-driven gene activation. The luminescence data was used to calculate an IC50 for each sample. The IC50 is defined as the concentration of compound that suppresses the luminescence to 50% of that observed in the absence of compound, in other words, with full stimulation.

[1] = tested on: serum IL-6 after s.c. oligo CpG 1668 challenge; assay: In vivo short term CpG stimulation assay (serum IL-6); parameters: species or system mice; conditions: Mus musculus, po, 2 h, mice, oral in water, 20 mg/kg, s.c. 30 micrograms oligo CpG 1668 within 90 minutes, serum two hours later; repeat assays separated by commas; read-out: Percent short-term IL-6 suppression
Protocol: Short Term CpG Stimulation Assay: Compounds identified as having potency in the HEK/TLR9 and splenocyte CpG 1668 assays described in Example 9, above, were tested in an in vivo short term CpG stimulation assay. Mice were orally administered compound in water, and challenged within 90 minutes by subcutaneous (s.c.) injection of 30 micrograms of oligo CpG 1668. Two hours later serum was taken and assayed for IL-6 using ELISA analysis. Results from assays repeated on different dates are set forth as multiple numbers separated by commas.

[2] = tested on: mouse spleen IL-6 production in response to Oligo CpG 1668; assay: Splenocyte CpG 1668 assay (IL-6 ELISA); format: cell-based; conditions: mouse splenocytes, Oligo CpG 1668, 72 hrs
Protocol: (2) Splenocyte CpG 1668 Assay: Some of the compounds tested in the primary assay were also assayed for suppression of mouse spleen IL-6 production in response to stimulation with Oligo CpG 1668, a synthetic phosphorothioate oligonucleotide (Krieg et al. Nature. 374:546-9 (1995)), with nucleotide sequence [NT] (SEQ ID NO:2). Each compound was added to dissociated splenocytes before addition of stimulatory oligonucleotide. Cells were stimulated in culture for 72 hrs and the supernatant was removed for ELISA analysis of IL-6 level. Here the IC50 is defined as the concentration of compound that suppresses cytokine production to 50% of that observed in the absence of compound, i.e., full stimulation.

[3] = tested on: dissociated mouse splenocytes; assay: Spleen CellTiter-Glo viability assay; format: cell-based; conditions: Splenocyte, 72 hours, viability (ATP)
Protocol: (3) Spleen CT Glo Assay: To determine if compounds had adverse effects on living cells, dissociated mouse splenocytes were incubated with some of the compounds for 72 hours. At the end of the incubation Celliter-Glo™ reagent (Promega Corporation, Madison, Wis.) was added and luminescence was read per manufacturer's instructions. This reagent measures ATP as an indication of cell metabolism. Dead cells will not produce signal. IC50 is defined as the concentration of compound that suppresses viability to 50% of that observed in the absence of compound. The few compounds that measurably affected viability did so at concentrations far above those that affected cytokine release in response to TLR9 stimulation.

Structure (SMILES)	IC50 (human TLR7)	IC50 (human TLR9)	IC50 [2]	serum anti-dsDNA levels (MRL/lpr mice)	inhibition in vivo at 20 mg/kg [1]	IC50 [3]	difference in serum anti-dsDNA vs. vehicle by ANOVA (MRL/lpr mice; 8 and 12 week dosing points)
CCN(CCO)CCCC(C)Nc1ccnc2cc(Cl)ccc12 (centres unmarked) [hydroxychloroquine]				no detectable effect			
COC[C@H]1CCCN1CCCOc1ccc(-c2nc3ccc(OCCCN4CCC[C@@H]4COC)cc3o2)cc1 [Compound 26]		12.4 nM	42 nM		81%	> 10000 nM	
O=P1(N(CCCl)CCCl)NCCCO1 (centres unmarked) [Cyclophosphamide, cyclophosphamide]				consistent suppression; also recorded: suppressed anti-dsDNA			statistically significant

Now from value to compound, other results behind:

IC50 (human TLR7)	IC50 (human TLR9)	IC50 [2]	Structure (SMILES)	serum anti-dsDNA levels (MRL/lpr mice)	inhibition in vivo at 20 mg/kg [1]	IC50 [3]	difference in serum anti-dsDNA vs. vehicle by ANOVA (MRL/lpr mice; 8 and 12 week dosing points)
800 nM	4 nM		CN(C)CCCOc1ccc2nc(-c3ccc(OCCCN(C)CCCN(C)C)cc3)oc2c1 [Compound 34]		26%		
1400 nM	29 nM	40 nM	CN(C)CCCOc1ccc2nc(-c3ccc(OCCCN(C)CCOCCOCCN(C)C)cc3)oc2c1 [Compound 35]		38%		
